This assay concerns eIF2α phosphorylation. In words: Phospho-eIF2α (Ser51) sandwich ELISA in K562 cells. The format is cell-based. The following applies: serum-free RPMI, 10 μM compound, 6 hours; for Multiple changes in eIF2α phosphorylation at 10 μM (absorbance standardized to control = 1): DMSO-treated control set to 1; for fold induction at 10 µM: Homo sapiens, DMSO-treated control set to 1, read-out: Multiple changes in eIF2α phosphorylation at 10 μM (absorbance standardized to control = 1). As to the method:
Pathscan Phospho-eIF2a (Ser51) Sandwich ELISA Kit #7286 from Cell signaling was used. The K562 cell line was cultured in serum-free RPMI medium at 37° C. in the presence of 5% CO2. Cells were treated with test compounds at a concentration of 10 μM. Six hours after compound treatment, the cells were lysed with a lysis buffer included in the kit to obtain 50 μg of protein by quantification. Afterwards, ELISA assay was performed according to the manufacturer's protocol to obtain absorbance. The absorbance for each obtained compound was standardized to a value of which the control (DMSO-treated) is set to 1.
(In general: ELISA stands for enzyme-linked immunosorbent assay.)

Each structure is given as a SMILES string.

`CC(C)(C)c1cccc(Nc2c(N[C@H]3CC[C@H](Oc4ccc(C(F)(F)F)cc4)CC3)c(=O)c2=O)c1` [Compound 28, 3-((3-(tert-Butyl)phenyl)amino)-4-(((1,4-trans)-4-(4-(trifluoromethyl)phenoxy)cyclohexyl)amino)cyclobut-3-ene-1,2-dione]: the “Multiple changes in eIF2α phosphorylation at 10 μM (absorbance standardized to control = 1)” value worked out at 1.92.

Consider `COc1cccc(Nc2c(N[C@H]3CC[C@H](Oc4ccc(C(F)(F)F)cc4)CC3)c(=O)c2=O)c1` [Compound 33, 3-((3-Methoxyphenyl)amino)-4-(((1,4-trans)-4-(4-(trifluoromethyl)phenoxy)cyclohexyl)amino)cyclobut-3-ene-1,2-dione], for which the fold induction at 10 µM is 0.83. On to `CS(=O)(=O)c1ccc(O[C@H]2CC[C@H](Nc3c(Nc4ccccc4F)c(=O)c3=O)CC2)cc1` [Compound 65, 3-((2-Fluorophenyl)amino)-4-(((1,4-trans)-4-(4-(methylsulfonyl)phenoxy)cyclohexyl)amino)cyclobut-3-ene-1,2-dione], for which the fold induction at 10 µM is 1.07. Turning to `CC(C)(C)c1ccccc1Nc1c(N[C@H]2CC[C@H](Oc3ccc(S(C)(=O)=O)cc3)CC2)c(=O)c1=O` [Compound 77, 3-((2-(tert-Butyl)phenyl)amino)-4-(((1,4-trans)-4-(4-(methylsulfonyl)phenoxy)cyclohexyl)amino)cyclobut-3-ene-1,2-dione], the “Multiple changes in eIF2α phosphorylation at 10 μM (absorbance standardized to control = 1)” value amounted to 1.70.

The values are drawn from patent US20240286994A1, “NOVEL SQUARAMIDE DERIVATIVE AND USE THEREOF” (PUSAN NATIONAL UNIVERSITY INDUSTRY-UNIVERSITY COOPERATION …, priority 2021, published 2024).
